Results: PubChem BioAssay AID256 (DTP/NCI, 2004)
Where “and” joins values, the source holds several entries; their conditions need not be identical. Identical values can stand only once. Inconclusive results and toxic doses are left out. How the source made its calls: active means survival T/C of 150% or more; inactive means T/C below 125% in these data.

Tested on: CD2F1 mice, L1210 leukemia ip, survival T/C
Experiment: NCI In Vivo Anticancer Drug Screen. Data for tumor model L1210 Leukemia (intraperitoneal) in CD2F1 (CDF1) mice
Details: higher = longer survival
Procedure, shortened: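 Antitumor effect is scored in animals hosting a serially transplanted tumor. Values compare compound-dosed animals against vehicle-only controls as a simple quotient.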

[1] = endpoint: mean survival time, dose: 100.0 mg/kg/injection, schedule: Q01DX009 (ip), vehicle: saline with Tween-80
[2] = endpoint: mean survival time, dose: 200.0 mg/kg/injection, schedule: Q01DX009 (ip), vehicle: saline with Tween-80
[3] = endpoint: mean survival time, dose: 100.0 mg/kg/injection, schedule: Q04DX003 (ip), vehicle: saline with Tween-80
[4] = endpoint: mean survival time, dose: 200.0 mg/kg/injection, schedule: Q04DX003 (ip), vehicle: saline with Tween-80
[5] = endpoint: mean survival time, dose: 400.0 mg/kg/injection, schedule: Q01DX009 (ip), vehicle: saline with Tween-80
[6] = endpoint: mean survival time, dose: 400.0 mg/kg/injection, schedule: Q04DX003 (ip), vehicle: saline with Tween-80

Measured: T/C

CCCCCCCCCCCCCCC[N+]1(CC)CCCCC1
inactive: endpoint: mean survival time, dose: 0.09 mg/kg/injection, schedule: Q01DX009 (ip), vehicle: saline 102 % of control | endpoint: mean survival time, dose: 0.19 mg/kg/injection, schedule: Q01DX009 (ip), vehicle: saline 102 % of control | endpoint: mean survival time, dose: 0.39 mg/kg/injection, schedule: Q01DX009 (ip), vehicle: saline 115 % of control | endpoint: mean survival time, dose: 0.78 mg/kg/injection, schedule: Q01DX009 (ip), vehicle: saline 103 % of control

Cc1cc(C)c(S(=O)(=O)c2ccc(F)cc2)c(C)c1
inactive: endpoint: mean survival time, dose: 100.0 mg/kg/injection, schedule: Q01DX001 (ip), vehicle: saline 100 % of control | endpoint: mean survival time, dose: 100.0 mg/kg/injection, schedule: Q04DX003 (ip), vehicle: saline 101 % of control | endpoint: mean survival time, dose: 200.0 mg/kg/injection, schedule: Q01DX001 (ip), vehicle: saline 102 % of control | endpoint: mean survival time, dose: 200.0 mg/kg/injection, schedule: Q04DX003 (ip), vehicle: saline 102 % of control | endpoint: mean survival time, dose: 400.0 mg/kg/injection, schedule: Q01DX001 (ip), vehicle: saline 100 % of control | endpoint: mean survival time, dose: 400.0 mg/kg/injection, schedule: Q04DX003 (ip), vehicle: saline 96 % of control

CC1CCC(n2cnc3c(Cl)ncnc32)O1 (stereo unspecified)
inactive: endpoint: median survival time, dose: 12.5 mg/kg/injection, schedule: Q01DX009 (ip), vehicle: Klucel (hydroxypropylcellulose) (HPC) 97 % of control and 101 % of control | endpoint: median survival time, dose: 25.0 mg/kg/injection, schedule: Q01DX009 (ip), vehicle: Klucel (hydroxypropylcellulose) (HPC) 95 % of control and 100 % of control and 105 % of control | endpoint: median survival time, dose: 50.0 mg/kg/injection, schedule: Q01DX009 (ip), vehicle: Klucel (hydroxypropylcellulose) (HPC) 113 % of control and 93 % of control and 108 % of control | endpoint: median survival time, dose: 100.0 mg/kg/injection, schedule: Q01DX009 (ip), vehicle: Klucel (hydroxypropylcellulose) (HPC) 102 % of control and 108 % of control and 111 % of control | endpoint: median survival time, dose: 200.0 mg/kg/injection, schedule: Q01DX009 (ip), vehicle: Klucel (hydroxypropylcellulose) (HPC) 113 % of control (2×) and 114 % of control

CCCCCCCCCCCCSS(=O)(=O)c1ccc(C)cc1
inactive: endpoint: mean survival time, dose: 100.0 mg/kg/injection, schedule: Q04DX003 (ip), vehicle: other 95 % of control | endpoint: mean survival time, dose: 200.0 mg/kg/injection, schedule: Q04DX003 (ip), vehicle: other 95 % of control | endpoint: mean survival time, dose: 400.0 mg/kg/injection, schedule: Q04DX003 (ip), vehicle: other 95 % of control

CCCCCCCCCCCCCCCCCCC(C)C1CCCCC1 (stereo unspecified)
inactive: endpoint: mean survival time, dose: 100.0 mg/kg/injection, schedule: Q01DX001 (ip), vehicle: saline with Tween-80 104 % of control | endpoint: mean survival time, dose: 200.0 mg/kg/injection, schedule: Q01DX001 (ip), vehicle: saline with Tween-80 107 % of control | endpoint: mean survival time, dose: 400.0 mg/kg/injection, schedule: Q01DX001 (ip), vehicle: saline with Tween-80 101 % of control

COc1ccc(OC)c(NC(=O)Nc2ccc(C)c([N+](=O)[O-])c2)c1
inactive: endpoint: mean survival time, dose: 50.0 mg/kg/injection, schedule: Q01DX009 (ip), vehicle: saline with Tween-80 98 % of control | [1] 94 % of control | [2] 94 % of control

CN(C)CCNC(=O)c1ccc(N)cc1
inactive: endpoint: mean survival time, dose: 100.0 mg/kg/injection, schedule: Q04DX002 (ip), vehicle: saline 102 % of control | endpoint: mean survival time, dose: 200.0 mg/kg/injection, schedule: Q04DX002 (ip), vehicle: saline 102 % of control

Cc1c2ccccc2cc2c1ccc1cccc(F)c12
inactive: endpoint: median survival time, dose: 12.5 mg/kg/injection, schedule: Q04DX003 (ip), vehicle: saline with Tween-80 100 % of control | endpoint: median survival time, dose: 25.0 mg/kg/injection, schedule: Q04DX003 (ip), vehicle: saline with Tween-80 100 % of control | endpoint: median survival time, dose: 50.0 mg/kg/injection, schedule: Q04DX003 (ip), vehicle: saline with Tween-80 100 % of control

C(=C\CN(Cc1ccccc1)Cc1ccccc1)/CN(Cc1ccccc1)Cc1ccccc1
inactive: endpoint: mean survival time, dose: 100.0 mg/kg/injection, schedule: Q01DX009 (ip), vehicle: Klucel (hydroxypropylcellulose) (HPC) 95 % of control | endpoint: mean survival time, dose: 200.0 mg/kg/injection, schedule: Q01DX009 (ip), vehicle: Klucel (hydroxypropylcellulose) (HPC) 97 % of control

COC(=O)c1cccc(OC)c1OC
inactive: [1] 101 % of control | [3] 108 % of control | [2] 96 % of control | [4] 98 % of control | [5] 98 % of control | [6] 100 % of control

Cc1nnc(NS(=O)(=O)c2ccc(N=Nc3nc4[nH]c(N)nc(=S)c4[nH]3)cc2)s1
inactive: endpoint: mean survival time, dose: 12.5 mg/kg/injection, schedule: Q01DX009 (ip), vehicle: Klucel (hydroxypropylcellulose) (HPC) 110 % of control | endpoint: mean survival time, dose: 25.0 mg/kg/injection, schedule: Q01DX009 (ip), vehicle: Klucel (hydroxypropylcellulose) (HPC) 116 % of control | endpoint: mean survival time, dose: 50.0 mg/kg/injection, schedule: Q01DX009 (ip), vehicle: Klucel (hydroxypropylcellulose) (HPC) 122 % of control

O=S(=O)(Nc1ccc(O)c(Cl)c1)c1ccccc1
inactive: [3] 98 % of control | [4] 97 % of control | [6] 110 % of control

c1cc2[nH]c3ccncc3c2cn1
inactive: endpoint: mean survival time, dose: 50.0 mg/kg/injection, schedule: Q01DX009 (ip), vehicle: saline sonified 98 % of control | endpoint: mean survival time, dose: 100.0 mg/kg/injection, schedule: Q01DX009 (ip), vehicle: saline sonified 101 % of control

CC1=NN(c2ccccc2)C(=O)C1N=Nc1ccccc1S(=O)(=O)O (stereo unspecified)
inactive: [1] 103 % of control | [3] 97 % of control | [2] 97 % of control | [4] 103 % of control | [5] 101 % of control | [6] 112 % of control
